Assay results as given in patent publication US20250130239A1, “PROTEIN DEGRADER” (University of Dundee, priority 2021, published 2025).
“And” between values parts separate entries of the source, which are not always exact repeats. Equal values may be shown once.

What was measured:
[1] = biological target: T1, VPS34/PK3C3 (Q8NEB9), BromoTag N-term (Homo sapiens, UniProt O60885+P40337, L387A); assay: Degradation of BromoTag'ed VPS34/PK3C3 by AGB1; type: cell-based
T1 construct: comprising residues 368-440 of human Brd4; VPS34/PK3C3 (endogenous protein, fusion partner in the same polypeptide); expressed in transfected cells
Description: (§1) Degradation of a variety of target proteins. […] We performed CRISPR knock-in of the BromoTag, as described, into the endogenous loci of five additional proteins. […] The target proteins of Table 6 are all different, are all known to have different cellular roles and function, intracellular expression, and distinctive turnover rates within cells.

[2] = biological target: T2, MCM4 (P33991), BromoTag N-term (Homo sapiens, UniProt O60885+P40337, L387A); assay: Degradation of BromoTag'ed MCM4 by AGB1; type: cell-based
T2 construct: comprising residues 368-440 of human Brd4; MCM4 (endogenous protein, fusion partner in the same polypeptide); expressed in transfected cells
Description: as §1

HEK293 cells = assay: CellTiter-Glo cell viability assay, HEK293; type: cell-based, human; settings: up to 10 μM; 48 h
BromoTag-Brd2 [3] = biological target: T3, BromoTag-Brd2 (Homo sapiens, UniProt O60885+P40337, L387A); assay: Competition assay (inhibitor pre-treatment, then AGB1); type: cell-based; settings: then 200 nM 46 for 3 h
T3 construct: comprising residues 368-440 of human Brd4; Brd2 (endogenous protein, fusion partner in the same polypeptide); eGFP-P2A (upstream marker in the knock-in cassette) (N, cleaved yes); expressed in transfected cells; host or cells: HEK293, heterozygous CRISPR knock-in at the endogenous BRD2 locus
Procedure: Competition Assay. Heterozygous BromoTag-Brd2 HEK293 cells were plated in six-well plates at a density of 5×10^5 cells per well in 2 mL DMEM media. […] After 1 h, 200 nM of AGB1 was added to the previously compound treated cells. After a following 3 h the cells were harvested for subsequent processing via western blot. Each treatment was performed in tandem to produce two technical repeats per condition. The 6 well plates were incubated for 4 h at 37° C. and 5% CO2 throughout the experiment.
Western Blotting. All cells were harvested on ice with RIPA lysis, and extraction buffer (ThermoFisher Scientific, 89901) supplemented with protease inhibitor cocktail (Merck, 11697498001) and Benzonase® Nuclease (Sigma, E1014) before being store at −20° C. prior to use. Total protein quantity was determined using the BCA protein assay (#23225, Pierce, Rockford, Illinois). Protein concentration was determined using the BCA assay (ThermoFisher Scientific, 23225). Samples were then prepared and loaded onto NuPAGE™ 4-12% Bis-Tris Midi gels (ThermoFisher Scientific, WG1403A), followed by the transfer of the proteins onto nitrocellulose membranes (EMD Millipore). The membranes were blocked for 1 h prior to incubation with the primary antibodies using 5% Milk TBST. Membranes were probed for Brd2 (Abcam, Ab139690, 1:1000), Brd3 (Abcam, Ab50818, 1:4000), Brd4 (Abcam, Ab128874, 1:1000) or our polyclonal Brd4^BD2 L387A antibody. Following overnight incubation with the primary antibodies at 4° C., the membranes were incubated with secondary antibodies (Anti-rabbit, Abcam AB216773, 1:5000 or anti-mouse, Abcam AB216774, 1:5000) and hFAB™ Rhodamine Anti-Tubulin Antibody (Biorad, 12004165, 1:10000) for one h and then imaged with a Bio-Rad imager (LI-COR Biosciences). All western blots were analysed for band intensities using Image Lab from Bio-Rad (LI-COR, Biosciences). The data extracted from these blots were then plotted and analysed using Prism (v. 8.2.0, GraphPad).

BromoTag-Brd2 [4] = biological target: T3, BromoTag-Brd2; assay: Dose-response degradation assay (western blot, 6 h) in heterozygous BromoTag-Brd2 HEK293 cells; type: cell-based
Procedure: Dose-response Degradation Assays. All dose-response degradation assays were performed on the genotype verified heterozygous BromoTag-Brd2 HEK293 cell line. Heterozygous BromoTag-Brd2 HEK293 cells were plated at a density of 5×10^5 cells per well of a six healthy plate a day before initiation of the titration experiment. PROTAC compounds were dissolved in DMSO at a concentration of 10 mM, from these stock concentrations, PROTAC compounds were diluted to appropriate concentrations using DMSO in the range of 10 μM-1 nM. […] Control compounds such as MZ1, cis-MZ1 were similarly dissolved in DMSO to the appropriate concentration. […] Cells were washed twice with PBS before being harvested.
Western Blotting. […] The membranes were blocked for 1 h prior to incubation with the primary antibodies using 5% Milk TBST. […] Following overnight incubation with the primary antibodies at 4° C., the membranes were incubated with secondary antibodies (Anti-rabbit, Abcam AB216773, 1:5000 or anti-mouse, Abcam AB216774, 1:5000) and hFAB™ Rhodamine Anti-Tubulin Antibody (Biorad, 12004165, 1:10000) for one h and then imaged with a Bio-Rad imager (LI-COR Biosciences). All western blots were analysed for band intensities using Image Lab from Bio-Rad (LI-COR, Biosciences). The data extracted from these blots were then plotted and analysed using Prism (v. 8.2.0, GraphPad).

[5] = biological target: T4, BRD4 (O60885), BromoTag N-term (Homo sapiens, UniProt O60885+P40337, L387A); assay: Degradation of BromoTag'ed BRD4 by AGB1; type: cell-based
T4 construct: comprising residues 368-440 of human Brd4; expressed in transfected cells
Description: as §1

T3 sequence (P40337 whole entry, other chains not shown, the tested form may be a part): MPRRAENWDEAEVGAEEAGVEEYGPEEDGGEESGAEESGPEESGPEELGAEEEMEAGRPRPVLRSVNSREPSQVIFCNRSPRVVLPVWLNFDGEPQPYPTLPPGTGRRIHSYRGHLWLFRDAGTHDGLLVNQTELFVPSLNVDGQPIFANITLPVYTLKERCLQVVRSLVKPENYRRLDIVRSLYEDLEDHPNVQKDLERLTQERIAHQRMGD
T2 sequence (P40337 whole entry, other chains not shown, the tested form may be a part): as above
T1 sequence (P40337 whole entry, other chains not shown, the tested form may be a part): as above
T4 sequence (P40337 whole entry, other chains not shown, the tested form may be a part): as above

SMILES: CC[C@@H](C(=O)OCCOCCOCCOCC(=O)N[C@H](C(=O)N1C[C@H](O)C[C@H]1C(=O)NCc1ccc(-c2scnc2C)cc1)C(C)(C)C)[C@@H]1N=C(c2ccc(Cl)cc2)c2c(sc(C)c2C)-n2c(C)nnc21 (single isomer, unassigned) [AGB1 (46)]
- Dmax [1]: > 99%
- pDC50 ([1]; BromoTag'ed VPS34/PK3C3, N-term tag): 8.0
- Dmax [2]: > 99%
- pDC50 ([2]; BromoTag'ed MCM4, N-term tag): 8.1
- cytotoxicity (HEK293 cells): lack of cytotoxicity
- on-target degradation activity after pre-treatment with MLN4924 (BromoTag-Brd2 [3]; 3 μM MLN4924 1 h): completely abrogated
- on-target degradation activity after pre-treatment with ET-JQ1-OMe (BromoTag-Brd2 [3]; 10 μM ET-JQ1-OMe 1 h): A similar outcome
- on-target degradation activity after pre-treatment with VH298 (BromoTag-Brd2 [3]; 10 μM VH298 1 h): completely abrogated
- on-target degradation activity after pre-treatment with MG132 (BromoTag-Brd2 [3]; 50 μM MG132 1 h): blocked
- DC50 (BromoTag-Brd2 [4]; 6 h, range over the two antibodies, listed as 46): 13 to 15 nM and < 15 nM
- pDC50 (BromoTag-Brd2 [4]; Ab: Brd4^BD2 L387A, single stereoisomers, 8-point 10 μM-1 nM, 6 h, mean (±S.E.) of two repeats): 7.8 ± 0.2
- pDC50 (BromoTag-Brd2 [4]; Ab: BromoTag-Brd2, single stereoisomers, 8-point 10 μM-1 nM, 6 h, mean (±S.E.) of two repeats): 7.9 ± 0.1
- pDC50 (BromoTag-Brd2 [4]; BromoTag'ed BRD2 (P25440), N-term tag, Table 6): 7.8
- Dmax (BromoTag-Brd2 [4]; HEK293, Ab: Brd4^BD2 L387A, single stereoisomers, 6 h): 99%
- Dmax [5]: > 95%
- pDC50 ([5]; BromoTag'ed BRD4, N-term tag): 7.9
